In patent publication US20250163057A1, “DCN-1 MODULATING COMPOUNDS AND METHODS OF USE THEREOF” (Cellarity, Inc., priority 2023, published 2025):
Where two headings read alike, the source gives them in different places.

Tests used:
[1] = tested on: Cullin-3 (CUL3) neddylation; test: AlphaLISA assay for Cullin-3 (CUL3) neddylation in TF 1 cells; type: cell-based; details: Homo sapiens, 3 hours treatment
Method in brief: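 TF 1 cells in unsupplemented IMDM treated with compound concentrations for 3 h, then lysed. CUL3 neddylation detected by AlphaLISA (biotinylated anti-NEDD8, anti-CUL3 acceptor beads overnight, streptavidin donor beads 1 h); normalized to vehicle (0%) and 1 μM DI-1548 (100%), IC50 from Hill fits.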

[2] = target: DCN1 (DCUND1) protein PONY domain (Homo sapiens (Human), UniProt Q96GG9); test: TR-FRET assay, DCN1 binding with FAM-labeled probe
Sequence of DCN1 (DCUND1) protein PONY domain (Q96GG9 60-248): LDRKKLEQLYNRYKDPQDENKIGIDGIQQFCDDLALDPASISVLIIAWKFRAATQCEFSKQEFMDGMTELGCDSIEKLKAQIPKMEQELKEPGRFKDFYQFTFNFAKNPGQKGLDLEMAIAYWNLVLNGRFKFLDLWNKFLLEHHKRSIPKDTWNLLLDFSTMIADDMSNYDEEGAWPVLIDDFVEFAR
Method in brief: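 First, the E. coli-derived PONY domain was biotinylated and paired with streptavidin Tb cryptate. Compounds in 0.1% DMSO were then added to DCN1 and FAM-probe (5 nM/20 nM, or 0.31 nM/900 nM total with 800 nM unlabelled) in TritonX, 200 mM NaCl buffer. Finally, TR-FRET ratios were recorded at 1, 5 and 24 hrs.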

DCN1 protein = DCN1 protein (Homo sapiens (Human), UniProt Q96GG9); test: Intact Protein MS Analysis with the RapidFire-TOF System (covalent adduct formation); type: binding; details: MS Emax; 400 nM DCN1, 3 hours at room temperature
Sequence of DCN1 protein (Q96GG9 whole entry): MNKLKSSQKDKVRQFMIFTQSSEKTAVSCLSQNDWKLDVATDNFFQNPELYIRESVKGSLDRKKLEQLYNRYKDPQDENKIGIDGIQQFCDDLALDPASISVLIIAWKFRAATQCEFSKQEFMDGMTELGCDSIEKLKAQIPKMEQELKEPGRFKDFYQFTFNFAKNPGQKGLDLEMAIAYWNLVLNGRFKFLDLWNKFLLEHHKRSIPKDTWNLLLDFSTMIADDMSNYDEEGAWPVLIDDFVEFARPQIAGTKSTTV
Method in brief: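 Tag-cleaved human DCN1 (400 nM) expressed in E. coli, in 25 mM Tris-HCl, 200 mM NaCl, 1 mM DTT, was incubated with 11 compound concentrations for 3 h at room temperature and quenched with 0.2% formic acid. Intact-protein Q-TOF MS with deconvolution detected the compound adduct mass.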

[3] = 24 hr after treatment with compound, read-out: TR FRET IC50 24 hr
[4] = read-out: TR FRET IC50 1 hr, 1 hr after treatment with compound
[5] = TR FRET IC50 1 hr (nM), 1 hr after treatment with compound

Row | Structure (SMILES) | IC50 ([1]; TF-1, 3 h) | IC50 [2, 3] | IC50 [2, 4] | % Adduct Formation (DCN1 protein) | IC50 [1] | IC50 [2, 5]
1 | CCN1C(=O)[C@@H](NC(=O)c2cccc(C(F)(F)F)c2)[C@@H](c2ccc(F)cc2)c2c(C(=O)N3CCN(C4COC4)CC3C#N)nn(-c3ccccc3)c21 (stereo partly shown) [Compound I-357] | ≤ 100 nM | ≤ 200 nM | ≤ 200 nM | ++ (MS Emax % adduct formation greater than 30.0 and less than or equal to 80.0) | – | –
2 | CCN1C(=O)[C@@H](NC(=O)c2cccc(C(F)(F)F)c2)[C@@H](c2ccc(F)cc2)c2c(C(=O)N(CC#N)CCN3CCOCC3)nn(-c3ccccc3)c21 (racemic) [Compound I-320] | ≤ 100 nM | ≤ 200 nM | ≤ 200 nM | +++ (MS Emax % adduct formation greater than 80.0 and less than or equal to 100.0) | – | –
3 | CCN1C(=O)[C@@H](NC(=O)c2cccc(OC)c2)[C@@H](C2CC2)c2c(C(=O)N3[C@H](C#N)C[C@H]4C[C@H]43)nn(C3CCOCC3)c21 [Compound I-395] | – | ≤ 200 nM | ≤ 200 nM | +++ (MS Emax % adduct formation greater than 80.0 and less than or equal to 100.0) | ≤ 100 nM | –
4 | CCN1C(=O)[C@@H](NC(=O)c2cccc(C(F)(F)F)c2)[C@@H](c2ccc(F)cc2)c2c(C(=O)N(CC#N)CCCN(C)C)nn(C3CCOCC3)c21 [Compound I-353] | ≤ 100 nM | ≤ 200 nM | ≤ 200 nM | +++ (MS Emax % adduct formation greater than 80.0 and less than or equal to 100.0) | – | –
5 | CCN1C(=O)[C@@H](NC(=O)c2cccc(C(F)(F)F)c2)[C@@H](C2CCCC2)c2c(C(=O)N3[C@H](C#N)C[C@H]4C[C@H]43)nn(C3CCOCC3)c21 [Compound I-376] | ≤ 100 nM | ≤ 200 nM | ≤ 200 nM | +++ (MS Emax % adduct formation greater than 80.0 and less than or equal to 100.0) | – | –
6 | CCN1C(=O)[C@@H](NC(=O)c2cccc(C(F)(F)F)c2)[C@@H](c2ccc(F)cc2)c2c(C(=O)N(C)[C@@H](C)C#N)nn(C3CCOCC3)c21 [Compound I-368] | ≤ 100 nM | ≤ 200 nM | ≤ 200 nM | +++ (MS Emax % adduct formation greater than 80.0 and less than or equal to 100.0) | – | –
7 | C=C(CN1CCN(C2COC2)CC1)C(=O)NCc1nn(-c2ccccc2)c2c1[C@H](c1ccc(F)cc1)[C@H](NC(=O)c1cccc(C(F)(F)F)c1)C(=O)N2CC (racemic) [Compound I-57] | ≤ 100 nM | ≤ 200 nM | ≤ 200 nM | ++ (MS Emax % adduct formation greater than 30.0 and less than or equal to 80.0) | – | –
8 | CCN1C(=O)[C@@H](NC(=O)c2cccc(C(F)(F)F)c2)[C@@H](c2ccc(F)cc2)c2c([C@@H](CF)NC#N)nn(-c3ccccc3)c21 [Compound I-279] | ≤ 100 nM | ≤ 200 nM | ≤ 200 nM | +++ (MS Emax % adduct formation greater than 80.0 and less than or equal to 100.0) | – | –
9 | CCN1C(=O)[C@@H](NC(=O)c2cccc(C(F)(F)F)c2)[C@@H](c2ccc(F)cc2)c2c(C(=O)N(C)[C@@H](C)C#N)nn(-c3ccccc3)c21 (single isomer, unassigned) [Compound I-300, (4S,5S)—N—((S*)-1-cyanoethyl)-7-ethyl-4-(4-fluorophenyl)-N-methyl-6-oxo-1-phenyl-5-(3-(trifluoromethyl)benzamido)-4,5,6,7-tetrahydro-1H-pyrazolo[3,4-b]pyridine-3-carboxamide] | ≤ 100 nM | ≤ 200 nM | – | +++ (MS Emax % adduct formation greater than 80.0 and less than or equal to 100.0) | – | ≤ 200 nM
10 | CCCn1nc(C(=O)N2[C@H](C#N)C[C@H]3C[C@H]32)c2c1N(CC)C(=O)[C@@H](NC(=O)c1cccc(C(F)(F)F)c1)[C@H]2C1CC1 [Compound I-328] | ≤ 100 nM | ≤ 200 nM | ≤ 200 nM | +++ (MS Emax % adduct formation greater than 80.0 and less than or equal to 100.0) | – | –
11 | CCN1C(=O)[C@@H](NC(=O)c2cccc(C(F)(F)F)c2)[C@@H](c2ccc(F)cc2)c2c(C(=O)N3CCC[C@H]3C#N)nn(-c3cccc(OCCCN4CCC5(CC4)COC5)c3)c21 [Compound I-336] | ≤ 100 nM | ≤ 200 nM | ≤ 200 nM | +++ (MS Emax % adduct formation greater than 80.0 and less than or equal to 100.0) | – | –
12 | CCN1C(=O)[C@@H](NC(=O)c2cccc(C(F)(F)F)c2)[C@@H](c2ccc(F)cc2)c2c(C(=O)N(CC#N)CCN(C)C3COC3)nn(-c3ccccc3)c21 (racemic) [Compound I-321] | ≤ 100 nM | ≤ 200 nM | ≤ 200 nM | +++ (MS Emax % adduct formation greater than 80.0 and less than or equal to 100.0) | – | –
13 | CCN1C(=O)[C@@H](NC(=O)c2cccc(C(F)(F)F)c2F)[C@@H](c2ccc(F)cc2)c2c(C(=O)N3CCC[C@H]3C#N)nn(C3CCOCC3)c21 [Compound I-333] | ≤ 100 nM | ≤ 200 nM | – | +++ (MS Emax % adduct formation greater than 80.0 and less than or equal to 100.0) | – | 200 to 1000 nM
14 | CCN1C(=O)[C@@H](NC(=O)c2cccc(C(F)(F)F)n2)[C@@H](c2ccc(F)cc2)c2c(C(=O)N3CCC[C@H]3C#N)nn(C3CCOCC3)c21 [Compound I-332] | ≤ 100 nM | ≤ 200 nM | – | +++ (MS Emax % adduct formation greater than 80.0 and less than or equal to 100.0) | – | 200 to 1000 nM
15 | CCCn1nc(C(=O)N(CC#N)C2CC2)c2c1N(CC)C(=O)[C@@H](NC(=O)c1cccc(C(F)(F)F)c1)[C@H]2c1ccc(F)cc1 [Compound I-356] | ≤ 100 nM | ≤ 200 nM | – | +++ (MS Emax % adduct formation greater than 80.0 and less than or equal to 100.0) | – | 200 to 1000 nM
16 | CCN1C(=O)[C@@H](NC(=O)c2cccc(C(F)(F)F)c2)[C@@H](c2ccc(F)cc2)c2c(C(=O)N(CC#N)CCN3CCN(C4COC4)CC3)nn(-c3ccccc3)c21 [Compound I-323] | ≤ 100 nM | ≤ 200 nM | ≤ 200 nM | +++ (MS Emax % adduct formation greater than 80.0 and less than or equal to 100.0) | – | –
17 | CCN1C(=O)[C@@H](NC(=O)c2cccc(C(F)(F)F)c2)[C@@H](c2ccc(F)cc2)c2c(C(=O)N3CCOC[C@H]3C#N)nn(-c3ccccc3)c21 [Compound I-276] | ≤ 100 nM | ≤ 200 nM | – | +++ (MS Emax % adduct formation greater than 80.0 and less than or equal to 100.0) | – | 200 to 1000 nM
18 | CCN1C(=O)[C@@H](NC(=O)c2cccc(C(F)(F)F)c2)[C@@H](c2ccc(F)cc2)c2c(C(=O)N(C)[C@H](C#N)CCN3CCOCC3)nn(-c3ccccc3)c21 [Compound I-308] | ≤ 100 nM | ≤ 200 nM | ≤ 200 nM | +++ (MS Emax % adduct formation greater than 80.0 and less than or equal to 100.0) | – | –
19 | CCN1C(=O)[C@@H](NC(=O)c2cccc(C(F)(F)F)c2)[C@@H](c2ccc(F)cc2)c2c(C(=O)N(CC#N)C3CC3)nn(-c3ccccc3)c21 (stereo in doubt) [Compound I-284] | ≤ 100 nM | ≤ 200 nM | ≤ 200 nM | +++ (MS Emax % adduct formation greater than 80.0 and less than or equal to 100.0) | – | –
